In article PMC5584945, “Evaluation of robenidine analog NCL195 as a novel broad-spectrum antibacterial agent” (PLoS ONE, 2017):
≈ marks a conversion by molar mass, not a printed value. Read-outs that look alike come from different tables or passages of the source.

Key:
[1] = LogD by gradient HPLC chromatographic method; assay type: physicochemical; conditions: pH 7.4
[2] = test system: S. aureus; test: MIC, broth micro-dilution (CLSI); assay type: cell-based, Staphylococcus aureus; conditions: for MIC / MIC50 / MIC90: Staphylococcus aureus; for MIC50 / MIC90: S2 Table isolates
[3] = test system: panel of mammalian cell lines (Caco-2, HEL 299, Hep G2, MDBK, MCF7); test: In vitro cytotoxicity, WST-1, all cell lines tested; assay type: cell-based; conditions: lower bound over all the cell lines tested
Text: (§1) In order to ensure minimal off target mammalian cell cytotoxicity, we assayed NCL812, NCL195 and NCL219 for in vitro cytotoxicity using a panel of adherent mammalian cell lines: Caco-2 (human colorectal adenocarcinoma cell line), HEL 299 (non-cancerous human lung fibroblast cell line), Hep G2 (human hepatocellular carcinoma cell line), MDBK (normal bovine kidney cell line) and MCF7 (human mammary gland adenocarcinoma cell line). Cell lines were maintained in Dulbecco’s Modified Eagle’s Medium (DMEM; […] After 24 h incubation, media was removed, washed once with medium without antibiotics and fresh medium supplemented with 10% (vol/vol) FBS was added. […] Following exposure for 24 h, WST-1 reagent was added to each well at a final concentration of 10%. […] The IC50 value for each compound against each cell line was determined via non-linear regression (three parameters) using GraphPad Prism v6 software. The robustness of assays was confirmed with selected cell lines (Hep G2 and MDBK) seeded onto a 96–well Microwell Nunclon Delta Surface plate (Thermo Scientific Nunc; Cat No: 136101) at 5 × 10^4 cells per well.

[4] = test system: MDBK; test: In vitro cytotoxicity, WST-1; assay type: cell-based, bovine; conditions: Bos taurus, 24 h exposure, read-out: IC50 values ± SEM
Text: as §1

[5] = test system: Hep G2; test: Real-time cell viability, RealTime-Glo MT; assay type: cell-based, human; conditions: 2 or 8 μg/ml, up to 20 h post-treatment
[6] = test system: S. pneumoniae D39; test: Minimum bactericidal concentration (MBC); assay type: cell-based; conditions: Streptococcus pneumoniae, 99.9% colony count reduction, read-out: MBC

SMILES: C/C(=N\NC(=N)N/N=C(\C)c1ccc(C(C)(C)C)cc1)c1ccc(C(C)(C)C)cc1 [NCL219, (E)-N'-((E)-1-(4-(tert-butyl)phenyl)ethylidene)-2-(1-(4-(tert-butyl)phenyl)ethylidene)hydrazine-1-carboximidhydrazide]
- chromatographic logD [1]: > 5.3
- Fold increase of MIC range in the presence of 10% FBS ([2]; 10% FBS versus no FBS): remained essentially the same
- MIC ([2]; ATCC 12600 / MSSA, ATCC12600 [Xen29] (MSSA), 10% FBS): 4 µg/mL (≈ 9.86 µM)
- MIC ([2]; ATCC 12600 / MSSA, ATCC12600 [Xen29] (MSSA), absence of FBS): 32 µg/mL (≈ 78.9 µM)
- MIC ([2]; ATCC 29213 / MSSA, ATCC29213 MSSA (ST5), 10% FBS, read-out: MIC): 8 µg/mL (≈ 19.7 µM)
- MIC ([2]; ATCC 29213 / MSSA, ATCC29213 MSSA (ST5), absence of FBS, read-out: MIC): 16 µg/mL (≈ 39.4 µM)
- MIC ([2]; ATCC 49775 / MSSA, ATCC 49775 (MSSA), 10% FBS, read-out: MIC): 4 µg/mL (≈ 9.86 µM)
- MIC ([2]; ATCC 49775 / MSSA, ATCC 49775 (MSSA), absence of FBS, read-out: MIC): 32 µg/mL (≈ 78.9 µM)
- MIC ([2]; IRISH 1 – HA-EMRSA (ST8), 10% FBS, read-out: MIC): > 64 µg/mL
- MIC ([2]; IRISH 1 – HA-EMRSA (ST8), absence of FBS, read-out: MIC): > 64 µg/mL
- MIC ([2]; IRISH 2 – HA-EMRSA (ST8), 10% FBS, read-out: MIC): 8 µg/mL (≈ 19.7 µM)
- MIC ([2]; IRISH 2 – HA-EMRSA (ST8), absence of FBS, read-out: MIC): 32 µg/mL (≈ 78.9 µM)
- MIC ([2]; MRSA / USA300, USA 300 - MRSA (ST8), 10% FBS, read-out: MIC): 4 µg/mL (≈ 9.86 µM)
- MIC ([2]; MRSA / USA300, USA 300 - MRSA (ST8), absence of FBS, read-out: MIC): > 64 µg/mL
- MIC ([2]; MRSA, AUS2-MRSA (ST239), 10% FBS, read-out: MIC): 8 µg/mL (≈ 19.7 µM)
- MIC ([2]; MRSA, AUS2-MRSA (ST239), absence of FBS, read-out: MIC): > 64 µg/mL
- MIC ([2]; MRSA, AUS3-MRSA (ST239), 10% FBS, read-out: MIC): 8 µg/mL (≈ 19.7 µM)
- MIC ([2]; MRSA, AUS3-MRSA (ST239), absence of FBS, read-out: MIC): 64 µg/mL (≈ 158 µM)
- MIC ([2]; MRSA, BENGAL BAY PVL+ – CA-MRSA (ST772), absence of FBS): 16 µg/mL (≈ 39.4 µM)
- MIC ([2]; MRSA, Classic–HA-MRSA (ST250), 10% FBS, read-out: MIC): 32 µg/mL (≈ 78.9 µM)
- MIC ([2]; MRSA, Classic–HA-MRSA (ST250), absence of FBS, read-out: MIC): 32 µg/mL (≈ 78.9 µM)
- MIC ([2]; MRSA, NY JAPAN – HA MRSA (ST5), 10% FBS, read-out: MIC): 4 µg/mL (≈ 9.86 µM)
- MIC ([2]; MRSA, NY JAPAN – HA MRSA (ST5), absence of FBS, read-out: MIC): > 64 µg/mL
- MIC ([2]; MRSA, ST398–CA-MRSA-V (ST398), 10% FBS, read-out: MIC): > 64 µg/mL
- MIC ([2]; MRSA, ST398–CA-MRSA-V (ST398), absence of FBS, read-out: MIC): > 64 µg/mL
- MIC ([2]; MRSA, WA2–CA-MRSA (ST78), absence of FBS, read-out: MIC): > 64 µg/mL
- MIC ([2]; MRSA, WA3–CA-MRSA (ST5), absence of FBS, read-out: MIC): > 64 µg/mL
- MIC ([2]; MRSA, WA84–CA-MRSA (ST45), 10% FBS, read-out: MIC): 8 µg/mL (≈ 19.7 µM)
- MIC ([2]; MRSA, WA84–CA-MRSA (ST45), absence of FBS, read-out: MIC): > 64 µg/mL
- MIC50 ([2]; 10% FBS): 8 µg/mL (≈ 19.7 µM)
- MIC90 ([2]; 10% FBS): > 64 µg/mL
- MIC50 ([2]; absence of FBS): 64 µg/mL (≈ 158 µM)
- MIC90 ([2]; absence of FBS): > 64 µg/mL
- MIC ([2]; TAIWAN PVL+ – CA-cMRSA (ST59), 10% FBS, read-out: MIC): 32 µg/mL (≈ 78.9 µM)
- MIC ([2]; TAIWAN PVL+ – CA-cMRSA (ST59), absence of FBS, read-out: MIC): > 64 µg/mL
- MIC ([2]; UK 15 PVL+ – HA-EMRSA (ST22), 10% FBS, read-out: MIC): 4 µg/mL (≈ 9.86 µM)
- MIC ([2]; UK 15 PVL+ – HA-EMRSA (ST22), absence of FBS, read-out: MIC): 32 µg/mL (≈ 78.9 µM)
- MIC ([2]; UK 15 – HA-EMRSA (ST22), 10% FBS, read-out: MIC): 8 µg/mL (≈ 19.7 µM)
- MIC ([2]; UK 15 – HA-EMRSA (ST22), absence of FBS, read-out: MIC): 64 µg/mL (≈ 158 µM)
- MIC ([2]; UK 16 – HA- EMRSA (ST36), 10% FBS, read-out: MIC): 4 µg/mL (≈ 9.86 µM)
- MIC ([2]; UK 16 – HA- EMRSA (ST36), absence of FBS, read-out: MIC): 32 µg/mL (≈ 78.9 µM)
- MIC ([2]; UK 17 – HA-EMRSA (ST247), 10% FBS, read-out: MIC): 16 µg/mL (≈ 39.4 µM)
- MIC ([2]; UK 17 – HA-EMRSA (ST247), absence of FBS, read-out: MIC): 64 µg/mL (≈ 158 µM)
- IC50 [3]: > 7 µg/mL
- IC50 [4]: 16 ± 0.2 µg/mL (≈ 39.4 µM)
- Effect on cell viability (real-time) [5]: had a demonstrable effect on viability at 2 μg/ml
- MBC [6]: 4 µg/mL (≈ 9.86 µM)
